We go through 50 compounds from patent US9156872B2, “2′-azido substituted nucleoside derivatives and methods of use thereof for the treatment of viral diseases” (priority 2011, dated 2015).

SMILES strings stand for the structures. Bounds are passed on as bounds.

The EC50 is the concentration that produces a half-maximal response.

One assay concerns HCV replicon cells. Briefly: Cell-based HCV replicon assay (replicon RNA by Taqman real time PCR). Particulars: HCV replicon 1b, cells harvested on day 3; read-out: 1b EC50.
For the compound `C[C@@]1(N=[N+]=[N-])[C@@H]2OP(=O)(OC3CCC3)OC[C@H]2O[C@H]1n1ccc(=O)[nH]c1=O` (some centres unmarked) [Compound 84], the EC50 is 51000 nM.
`CCCOP1(=O)OC[C@H]2O[C@@H](n3ccc(=O)[nH]c3=O)[C@](C)(N=[N+]=[N-])[C@@H]2O1` (some centres unmarked) [Compound 86]: the EC50 was above 100000 nM.
For the compound `C[C@@]1(N=[N+]=[N-])[C@@H]2OP(=O)(OC3CCCC3)OC[C@H]2O[C@H]1n1ccc(=O)[nH]c1=O` (some centres unmarked) [Compound 87], the concentration giving a half-maximal response (EC50) amounted to 3100 nM.
In the case of `C[C@@]1(N=[N+]=[N-])[C@@H]2OP(=O)(OC3CCCC3)OC[C@H]2O[C@H]1n1ccc(=O)[nH]c1=O` (some centres unmarked) [Compound 88], the half-maximal effective concentration (EC50) was determined as 400 nM.

The assay is the same for the next values; noted with them: Hepatitis C virus, 72 h, HCV replicon 1b, cells harvested on day 3; read-out: 1b EC50.
`CCOc1nc(N)nc2c1ncn2[C@@H]1O[C@@H]2COP(=O)(OC3CCCC3)O[C@H]2[C@@]1(C)N=[N+]=[N-]` (some centres unmarked) [Compound 73]: the 50% effective concentration (EC50) was 700 nM.
Turning to `C[C@@]1(N=[N+]=[N-])[C@@H]2OP(=O)(OC3CCC3)OC[C@H]2O[C@H]1n1ccc(=O)[nH]c1=O` (some centres unmarked) [Compound 83], the concentration giving a half-maximal response (EC50) stood at 63000 nM.
Consider `CCCOP1(=O)OC[C@H]2O[C@@H](n3ccc(=O)[nH]c3=O)[C@](C)(N=[N+]=[N-])[C@@H]2O1` (some centres unmarked) [Compound 85], for which the EC50 was above 100000 nM.
On to `COc1nc(N)nc2c1ncn2[C@@H]1O[C@@H]2COP(=O)(OC3CCCC3)O[C@H]2[C@@]1(C)N=[N+]=[N-]` (some centres unmarked) [Compound 105], for which the EC50 was determined as 17100 nM.
For the compound `CCOc1nc(N)nc2c1ncn2[C@@H]1O[C@@H]2COP(=O)(OC3CCCCC3)O[C@H]2[C@@]1(C)N=[N+]=[N-]` (some centres unmarked) [Compound 106], the concentration for a half-maximal effect (EC50) turned out to be 49900 nM.
In the case of `C[C@@]1(N=[N+]=[N-])[C@H](O)[C@@H](CO)O[C@H]1n1cnc2c(N3CCC3)nc(N)nc21` [Compound 137], the EC50 is above 100000 nM.
For `C[C@@]1(N=[N+]=[N-])[C@H](O)[C@@H](CO)O[C@H]1n1cnc2c(NC3CC3)nc(N)nc21` [Compound 138], the EC50 is above 100000 nM.

Still in this assay, the particulars now being: Hepatitis C virus, 72 h, read-out: 1b EC50.
In the case of `C[C@@]1(N=[N+]=[N-])[C@@H]2OP(=O)(Oc3ccccc3)OC[C@H]2O[C@H]1n1ccc(N)nc1=O` (some centres unmarked) [Compound 65], the 50% effective concentration (EC50) came out at 56000 nM.
Turning to `CCOc1nc(N)nc2c1ncn2[C@@H]1O[C@H](COP(=O)(N[C@@H](C)C(=O)OCc2ccccc2)Oc2ccccc2)[C@@H](O)[C@@]1(C)N=[N+]=[N-]` (some centres unmarked) [Compound 69], the concentration giving a half-maximal response (EC50) stood at 2200 nM.
Turning to `CCOc1nc(N)nc2c1ncn2[C@@H]1O[C@H](COP(=O)(N[C@@H](C)C(=O)OC)Oc2cccc3ccccc23)[C@@H](O)[C@@]1(C)N=[N+]=[N-]` (some centres unmarked) [Compound 70], the EC50 was 400 nM.
As for `CCOC(=O)[C@H](C)NP(=O)(OC[C@H]1O[C@@H](n2cnc3c(OCC)nc(N)nc32)[C@](C)(N=[N+]=[N-])[C@@H]1O)Oc1ccc(Cl)cc1` (some centres unmarked) [Compound 71], the EC50 is 600 nM.
As to `CCOc1nc(N)nc2c1ncn2[C@@H]1O[C@H](COP(=O)(N[C@@H](C)C(=O)OC(C)C)Oc2ccc3c(c2)OCO3)[C@@H](O)[C@@]1(C)N=[N+]=[N-]` (some centres unmarked) [Compound 72], the 50% effective concentration (EC50) came out at 800 nM.
The same measure, in the same setting: to `COC(=O)[C@H](C)NP(=O)(OC[C@H]1O[C@@H](n2cnc3c(OC)nc(N)nc32)[C@](C)(N=[N+]=[N-])[C@@H]1O)Oc1ccccc1Cl` (some centres unmarked) [Compound 77] belongs 600 nM; to `CCCOC(=O)[C@H](C)NP(=O)(OC[C@H]1O[C@@H](n2cnc3c(OC)nc(N)nc32)[C@](C)(N=[N+]=[N-])[C@@H]1O)Oc1ccccc1` (some centres unmarked) [Compound 78], 1100 nM; to `COC(=O)[C@H](C)NP(=O)(OC[C@H]1O[C@@H](n2cnc3c(OC)nc(N)nc32)[C@](C)(N=[N+]=[N-])[C@@H]1O)Oc1ccc(Cl)cc1` (some centres unmarked) [Compound 79], 200 nM.
`COc1nc(N)nc2c1ncn2[C@@H]1O[C@H](COP(=O)(N[C@@H](C)C(=O)OC2CCCCC2)Oc2ccc(Cl)cc2)[C@@H](O)[C@@]1(C)N=[N+]=[N-]` (some centres unmarked) [Compound 80]: the EC50 is 2600 nM.
In the case of `CC(C)OC(=O)[C@H](C)NP(=O)(OC[C@H]1O[C@@H](n2ccc(=O)[nH]c2=O)[C@](C)(N=[N+]=[N-])[C@@H]1O)Oc1ccc(Cl)c(Cl)c1` (some centres unmarked) [Compound 92], the EC50 was found to be 7600 nM.
Turning to `COC(=O)[C@H](C)NP(=O)(OC[C@H]1O[C@@H](n2ccc(N)nc2=O)[C@](C)(N=[N+]=[N-])[C@@H]1O)Oc1ccccc1Cl` (some centres unmarked) [Compound 93], the concentration giving a half-maximal response (EC50) turned out to be 12000 nM.
Take `C[C@H](NP(=O)(OC[C@H]1O[C@@H](n2ccc(N)nc2=O)[C@](C)(N=[N+]=[N-])[C@@H]1O)Oc1ccccc1)C(=O)OC1CCCC1` (some centres unmarked) [Compound 97]: the concentration for a half-maximal effect (EC50) turned out to be 15000 nM.
On the same count and under the same terms, under `CCOC(=O)[C@H](C)NP(=O)(OC[C@H]1O[C@@H](n2ccc(=O)[nH]c2=O)[C@](C)(N=[N+]=[N-])[C@@H]1O)Oc1ccc(F)cc1` (some centres unmarked) [Compound 140] stands 1400 nM.
The same measure, in the same setting: to `CCOC(=O)[C@H](C)NP(=O)(OC[C@H]1O[C@@H](n2cnc3c(OCC)nc(N)nc32)[C@](C)(N=[N+]=[N-])[C@@H]1O)Oc1ccc(F)cc1` (some centres unmarked) [Compound 141] belongs 200 nM; to `C[C@H](NP(=O)(OC[C@H]1O[C@@H](n2ccc(=O)[nH]c2=O)[C@](C)(N=[N+]=[N-])[C@@H]1O)Oc1ccccc1)C(=O)OC1CCCCC1` (some centres unmarked) [Compound 144], 700 nM; to `CCOc1nc(N)nc2c1ncn2[C@@H]1O[C@H](COP(=O)(N[C@@H](C)C(=O)OC2CCCCC2)Oc2ccccc2)[C@@H](O)[C@@]1(C)N=[N+]=[N-]` (some centres unmarked) [Compound 145], 200 nM.
Take `Cc1ccc(C(C)C)cc1OP(=O)(N[C@@H](C)C(=O)OC(C)C)OC[C@H]1O[C@@H](n2ccc(=O)[nH]c2=O)[C@](C)(N=[N+]=[N-])[C@@H]1O` (some centres unmarked) [Compound 177]: the EC50 came to 12000 nM.
With `CC(=O)CCc1ccc(OP(=O)(N[C@@H](C)C(=O)OC(C)C)OC[C@H]2O[C@@H](n3ccc(=O)[nH]c3=O)[C@](C)(N=[N+]=[N-])[C@@H]2O)cc1` (some centres unmarked) [Compound 178], the concentration giving a half-maximal response (EC50) is 3000 nM.
In the case of `CCOC(=O)[C@H](C)NP(=O)(OC[C@H]1O[C@@H](n2ccc(N)nc2=O)[C@](C)(N=[N+]=[N-])[C@@H]1O)Oc1ccccc1Cl` (some centres unmarked) [Compound 183], the EC50 was 3000 nM.
For the compound `CC(C)OC(=O)[C@H](C)NP(=O)(OC[C@H]1O[C@@H](n2ccc(N)nc2=O)[C@](C)(N=[N+]=[N-])[C@@H]1O)Oc1ccc(Cl)c(Cl)c1` (some centres unmarked) [Compound 195], the EC50 came to 20 nM.
On to `CC(C)OC(=O)[C@H](C)NP(=O)(OC[C@H]1O[C@@H](n2ccc(N)nc2=O)[C@](C)(N=[N+]=[N-])[C@@H]1O)Oc1ccc(F)cc1` (some centres unmarked) [Compound 196], for which the half-maximal effective concentration (EC50) amounted to 39000 nM.
Turning to `C[C@H](NP(=O)(OC[C@H]1O[C@@H](n2ccc(N)nc2=O)[C@](C)(N=[N+]=[N-])[C@@H]1O)Oc1ccc(F)cc1)C(=O)OC1CCCCC1` (some centres unmarked) [Compound 197], the 50% effective concentration (EC50) is 400 nM.
Consider `CCOC(=O)[C@H](C)NP(=O)(OC[C@H]1O[C@@H](n2ccc(N)nc2=O)[C@](C)(N=[N+]=[N-])[C@@H]1O)Oc1ccc(Cl)cc1` (some centres unmarked) [Compound 198], for which the EC50 was found to be 600 nM.
As for `COC(=O)c1ccccc1OP(=O)(N[C@@H](C)C(=O)OC(C)C)OC[C@H]1O[C@@H](n2ccc(=O)[nH]c2=O)[C@](C)(N=[N+]=[N-])[C@@H]1O` (some centres unmarked) [Compound 219], the EC50 was 22000 nM.
Turning to `CCOC(=O)c1cccc(OP(=O)(N[C@@H](C)C(=O)OC)OC[C@H]2O[C@@H](n3cnc4c(OC)nc(N)nc43)[C@](C)(N=[N+]=[N-])[C@@H]2O)c1` (some centres unmarked) [Compound 221], the half-maximal effective concentration (EC50) came out at 800 nM.
As for `CCOC(=O)c1cccc(OP(=O)(N[C@@H](C)C(=O)OC)OC[C@H]2O[C@@H](n3ccc(=O)[nH]c3=O)[C@](C)(N=[N+]=[N-])[C@@H]2O)c1` (some centres unmarked) [Compound 222], the EC50 came out at 10 nM.
`COC(=O)c1ccccc1OP(=O)(N[C@@H](C)C(=O)OC)OC[C@H]1O[C@@H](n2cnc3c(OC)nc(N)nc32)[C@](C)(N=[N+]=[N-])[C@@H]1O` (some centres unmarked) [Compound 223]: the concentration giving a half-maximal response (EC50) was determined as 8800 nM.
Take `CCOC(=O)c1ccccc1OP(=O)(N[C@@H](C)C(=O)OC)OC[C@H]1O[C@@H](n2cnc3c(OC)nc(N)nc32)[C@](C)(N=[N+]=[N-])[C@@H]1O` (some centres unmarked) [Compound 224]: the EC50 was 3300 nM.
As for `COC(=O)[C@H](C)NP(=O)(OC[C@H]1O[C@@H](n2ccc(=O)[nH]c2=O)[C@](C)(N=[N+]=[N-])[C@@H]1O)Oc1ccc(Cl)c(Cl)c1` (some centres unmarked) [Compound 229], the 50% effective concentration (EC50) came out at 30 nM.
Consider `C[C@H](NP(=O)(OC[C@H]1O[C@@H](n2ccc(=O)[nH]c2=O)[C@](C)(N=[N+]=[N-])[C@@H]1O)Oc1cccc2ccccc12)C(=O)OCc1ccccc1` (some centres unmarked) [Compound 230], for which the EC50 was found to be 14000 nM.

Still in this assay, the particulars now being: read-out: 1b EC50.
Consider `C[C@H](NP(=O)(OC[C@H]1O[C@@H](n2ccc(=O)[nH]c2=O)[C@](C)(N=[N+]=[N-])[C@@H]1O)Oc1ccc(F)cc1)C(=O)OC1CCCCC1` (some centres unmarked) [Compound 89], for which the half-maximal effective concentration (EC50) is above 100000 nM.
Same read-out and setting: under `C[C@H](NP(=O)(OC[C@H]1O[C@@H](n2ccc(=O)[nH]c2=O)[C@](C)(N=[N+]=[N-])[C@@H]1O)Oc1ccc(F)cc1)C(=O)OC1CCCCC1` (some centres unmarked) [Compound 90] stands 2100 nM; under `COC(=O)[C@H](C)NP(=O)(OC[C@H]1O[C@@H](n2ccc(N)nc2=O)[C@](C)(N=[N+]=[N-])[C@@H]1O)Oc1ccccc1Cl` (some centres unmarked) [Compound 94], 10000 nM.
`CC(C)OC(=O)[C@H](C)NP(=O)(OC[C@H]1O[C@@H](n2ccc(N)nc2=O)[C@](C)(N=[N+]=[N-])[C@@H]1O)Oc1ccccc1Cl` (some centres unmarked) [Compound 95]: the concentration for a half-maximal effect (EC50) was determined as 4500 nM.
Take `CC(C)OC(=O)[C@H](C)NP(=O)(OC[C@H]1O[C@@H](n2ccc(N)nc2=O)[C@](C)(N=[N+]=[N-])[C@@H]1O)Oc1ccccc1Cl` (some centres unmarked) [Compound 96]: the EC50 turned out to be 600 nM.
`CCOC(=O)[C@H](C)NP(=O)(OC[C@H]1O[C@@H](n2ccc(N)nc2=O)[C@](C)(N=[N+]=[N-])[C@@H]1O)Oc1ccccc1Cl` (some centres unmarked) [Compound 184]: the EC50 turned out to be 5700 nM.
As for `C[C@H](NP(=O)(OC[C@H]1O[C@@H](n2ccc(N)nc2=O)[C@](C)(N=[N+]=[N-])[C@@H]1O)Oc1ccccc1)C(=O)OC1CCCC1` (some centres unmarked) [Compound 205], the EC50 was found to be 15000 nM.
Same read-out and setting: to `CC(C)OC(=O)[C@H](C)NP(=O)(OC[C@H]1O[C@@H](n2ccc(=O)[nH]c2=O)[C@](C)(N=[N+]=[N-])[C@@H]1O)Oc1ccc2c(c1)OCO2` (some centres unmarked) [Compound 234] belongs 25000 nM; to `COC(=O)[C@H](C)NP(=O)(OC[C@H]1O[C@@H](n2ccc(=O)[nH]c2=O)[C@](C)(N=[N+]=[N-])[C@@H]1O)Oc1cccc2ccccc12` (some centres unmarked) [Compound 235], 3 nM.
